How the values were obtained:
A-431 = assay: Antiproliferative activity against human A431 cells assessed as growth inhibition after 72 hrs by SRB assay; format: functional, cell-based; conditions: A-431, 72 h
[1] = target: Epidermal growth factor receptor (Homo sapiens, UniProt P00533); assay: Inhibition of wild type EGFR domain (unknown origin) expressed in baculovirus expression system using Poly(Glu:Tyr)4:1 substrate after 60 mins by ELISA
[2] = target: Epidermal growth factor receptor (Homo sapiens, UniProt P00533, L858R/T790M); assay: Inhibition of EGFR T790M/L858R double mutant (unknown origin) expressed in baculovirus expression system using Poly(Glu:Tyr)4:1 substrate after 60 mins by ELISA
Chain of Epidermal growth factor receptor (Homo sapiens, UniProt P00533, L858R/T790M) (P00533 25-1210 T790M/L858R limits assumed): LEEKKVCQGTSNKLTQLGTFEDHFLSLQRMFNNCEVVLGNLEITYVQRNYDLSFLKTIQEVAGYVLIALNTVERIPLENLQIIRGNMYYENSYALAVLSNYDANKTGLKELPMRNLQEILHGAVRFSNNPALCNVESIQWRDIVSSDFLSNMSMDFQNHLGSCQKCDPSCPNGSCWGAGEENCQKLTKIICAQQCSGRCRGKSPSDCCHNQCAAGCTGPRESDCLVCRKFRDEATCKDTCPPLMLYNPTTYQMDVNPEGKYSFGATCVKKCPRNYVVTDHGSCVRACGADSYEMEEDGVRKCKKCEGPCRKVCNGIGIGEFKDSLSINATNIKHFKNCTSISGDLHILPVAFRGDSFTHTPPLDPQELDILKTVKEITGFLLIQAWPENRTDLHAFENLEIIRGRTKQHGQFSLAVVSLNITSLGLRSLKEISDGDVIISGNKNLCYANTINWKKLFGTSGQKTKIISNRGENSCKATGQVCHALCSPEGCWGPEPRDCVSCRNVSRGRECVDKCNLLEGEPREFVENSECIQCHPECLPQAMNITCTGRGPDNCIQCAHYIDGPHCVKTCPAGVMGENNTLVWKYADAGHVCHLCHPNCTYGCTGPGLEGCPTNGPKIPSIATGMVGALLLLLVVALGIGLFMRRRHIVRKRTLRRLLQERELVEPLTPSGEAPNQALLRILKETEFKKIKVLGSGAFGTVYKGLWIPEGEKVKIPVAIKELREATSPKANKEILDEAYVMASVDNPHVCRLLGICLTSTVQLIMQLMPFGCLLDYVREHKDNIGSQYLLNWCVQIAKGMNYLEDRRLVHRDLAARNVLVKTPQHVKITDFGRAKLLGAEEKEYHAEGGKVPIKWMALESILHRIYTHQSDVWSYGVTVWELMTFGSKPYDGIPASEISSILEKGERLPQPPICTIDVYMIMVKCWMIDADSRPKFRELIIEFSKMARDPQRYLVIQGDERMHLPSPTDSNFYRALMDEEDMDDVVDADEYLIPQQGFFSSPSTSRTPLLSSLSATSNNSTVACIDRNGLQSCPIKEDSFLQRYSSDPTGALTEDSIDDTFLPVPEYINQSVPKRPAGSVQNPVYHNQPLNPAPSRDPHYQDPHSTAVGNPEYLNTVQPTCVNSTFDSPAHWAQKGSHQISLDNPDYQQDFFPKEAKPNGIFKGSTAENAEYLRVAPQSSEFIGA

NCI-H1975 = assay: Antiproliferative activity against gefitinib-resistant human NCI-H1975 cells assessed as growth inhibition after 72 hrs by SRB assay; format: functional, cell-based; conditions: NCI-H1975, 72 h

Chain of Epidermal growth factor receptor (Homo sapiens, UniProt P00533) (P00533 whole entry, the tested form may be a part): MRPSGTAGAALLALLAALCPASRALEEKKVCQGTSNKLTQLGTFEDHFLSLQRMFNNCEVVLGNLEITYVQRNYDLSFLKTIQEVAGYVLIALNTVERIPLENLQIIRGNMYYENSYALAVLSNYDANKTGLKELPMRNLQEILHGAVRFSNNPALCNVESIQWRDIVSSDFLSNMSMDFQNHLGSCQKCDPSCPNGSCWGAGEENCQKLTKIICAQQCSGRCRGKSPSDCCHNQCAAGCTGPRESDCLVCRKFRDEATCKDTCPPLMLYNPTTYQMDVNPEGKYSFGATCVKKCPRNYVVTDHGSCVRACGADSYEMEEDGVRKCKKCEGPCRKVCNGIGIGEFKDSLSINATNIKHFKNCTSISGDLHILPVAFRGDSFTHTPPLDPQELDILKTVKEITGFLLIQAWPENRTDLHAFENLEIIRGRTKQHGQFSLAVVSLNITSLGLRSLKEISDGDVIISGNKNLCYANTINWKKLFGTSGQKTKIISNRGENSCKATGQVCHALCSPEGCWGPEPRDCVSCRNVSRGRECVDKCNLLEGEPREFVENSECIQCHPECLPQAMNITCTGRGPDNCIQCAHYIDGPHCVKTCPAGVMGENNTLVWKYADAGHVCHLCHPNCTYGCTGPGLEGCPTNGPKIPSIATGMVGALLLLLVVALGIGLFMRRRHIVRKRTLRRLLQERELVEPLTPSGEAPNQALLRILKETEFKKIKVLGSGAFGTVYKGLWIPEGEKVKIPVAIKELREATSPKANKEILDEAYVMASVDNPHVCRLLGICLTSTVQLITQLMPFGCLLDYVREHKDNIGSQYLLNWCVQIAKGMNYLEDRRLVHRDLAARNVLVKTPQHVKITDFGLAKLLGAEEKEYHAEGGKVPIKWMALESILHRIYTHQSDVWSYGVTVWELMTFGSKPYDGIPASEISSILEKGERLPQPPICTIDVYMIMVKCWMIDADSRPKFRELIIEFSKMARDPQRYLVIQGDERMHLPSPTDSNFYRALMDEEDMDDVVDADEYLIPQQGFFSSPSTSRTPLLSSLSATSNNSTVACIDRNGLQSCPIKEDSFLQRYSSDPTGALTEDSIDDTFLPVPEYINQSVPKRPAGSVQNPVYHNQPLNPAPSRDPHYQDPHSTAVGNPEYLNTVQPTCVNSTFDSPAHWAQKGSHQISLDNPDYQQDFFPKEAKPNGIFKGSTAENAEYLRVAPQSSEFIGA

Structure (SMILES)	IC50 (A-431) [µM]	IC50 [1] [nM]	IC50 [2] [nM]	IC50 (NCI-H1975) [µM]
CN(C)C/C=C/C(=O)Nc1cc2c(Nc3ccc(F)c(Cl)c3)ncnc2s1	0.25	24	324	10.1
CCN1CCN(C/C=C/C(=O)Nc2cc3c(Nc4ccc(F)c(Cl)c4)ncnc3s2)CC1	4.37	35	4	20.6
O=C(/C=C/CNCc1ncccn1)Nc1cc2c(Nc3ccc(F)c(Cl)c3)ncnc2s1	3.24	8	55	53
CN(C)CCCN(C)CC(=O)Nc1cc2c(Nc3ccc(F)c(Cl)c3)ncnc2s1	2.38	5220	1700	19.1
O=C(/C=C/CN1CCC(F)(F)C1)Nc1cc2c(Nc3ccc(F)c(Cl)c3)ncnc2s1	3.69	28	1760	15.8
O=C(/C=C/CN1CC2(COC2)C1)Nc1cc2c(Nc3ccc(F)c(Cl)c3)ncnc2s1	0.86	7	43	5.54
O=C(CN1CCN(CCO)CC1)Nc1cc2c(Nc3ccc(F)c(Cl)c3)ncnc2s1	10.2	770	> 10000	> 100
CSC1CCN(C/C=C/C(=O)Nc2cc3c(Nc4ccc(F)c(Cl)c4)ncnc3s2)CC1	1.13	18	26	5.22
C=CCOC(=O)Nc1cc2c(Nc3ccc(F)c(Cl)c3)ncnc2s1	26.6	–	–	90.2
COCCNC/C=C/C(=O)Nc1cc2c(Nc3ccc(F)c(Cl)c3)ncnc2s1	4.85	1040	5	41.7
CCN(CC)C/C=C/C(=O)Nc1cc2c(Nc3ccc(F)c(Cl)c3)ncnc2s1	0.64	8	35	11.5
O=C(Nc1cc2c(Nc3ccc(F)c(Cl)c3)ncnc2s1)C1CCCC1	14.9	> 10000	> 10000	39.3
CN(C)CCN(C)CC(=O)Nc1cc2c(Nc3ccc(F)c(Cl)c3)ncnc2s1	1.59	4290	> 10000	17.6
O=C(/C=C/CN1CCC(F)CC1)Nc1cc2c(Nc3ccc(F)c(Cl)c3)ncnc2s1	2.4	–	–	10.8
O=C(/C=C/CNC1CCOCC1)Nc1cc2c(Nc3ccc(F)c(Cl)c3)ncnc2s1	2.21	20	32	7.05
COC(=O)CC(=O)Nc1cc2c(Nc3ccc(F)c(Cl)c3)ncnc2s1	21.3	5000	> 10000	> 100
C/C=C(\C)C(=O)Nc1cc2c(Nc3ccc(F)c(Cl)c3)ncnc2s1	24.2	6410	> 10000	> 100
O=C(/C=C/CN1CC2(CCOCC2)C1)Nc1cc2c(Nc3ccc(F)c(Cl)c3)ncnc2s1	13.4	2160	2250	39.2
O=C(CCl)Nc1cc2c(Nc3ccc(F)c(Cl)c3)ncnc2s1	3.58	40	710	3.01
O=C(/C=C/CN1CC(O)C1)Nc1cc2c(Nc3ccc(F)c(Cl)c3)ncnc2s1	1.65	38	305	6.83
CN(C)CCCN(C)C/C=C/C(=O)Nc1cc2c(Nc3ccc(F)c(Cl)c3)ncnc2s1	3.41	93	1040	> 100
CC(C)N1CCN(C/C=C/C(=O)Nc2cc3c(Nc4ccc(F)c(Cl)c4)ncnc3s2)CC1	4.78	34	2	20.7
CCC(CC)C(=O)Nc1cc2c(Nc3ccc(F)c(Cl)c3)ncnc2s1	22.8	> 10000	> 10000	> 100
CCCCC(=O)Nc1cc2c(Nc3ccc(F)c(Cl)c3)ncnc2s1	14.2	> 10000	> 10000	> 100

Source: ChEMBL document CHEMBL3233010, “Design, synthesis and biological evaluation of novel 6-alkenylamides substituted of 4-anilinothieno[2,3-d]pyrimidines as irreversible epidermal growth factor receptor inhibitors” (Bioorg Med Chem, 2014)
